Results as given in patent US10392412B2, “Platinum anticancer agents” (THE REGENTS OF THE UNIVERSITY OF CALIFORNIA, priority 2015, dated 2019).
Entries after “also recorded” stand apart in the source; their conditions may differ. Where two headings read alike, the source gives them in different places.

Key:
SNF539 cells = assay: Cytotoxicity CellTiter-Glo; assay type: cell-based, human
U87MG cells = assay: Cytotoxicity CellTiter-Glo; assay type: cell-based, human
U251 cells = assay: Cytotoxicity CellTiter-Glo; assay type: cell-based, human
MG-63 cells = assay: Cytotoxicity CellTiter-Glo; assay type: cell-based, human; conditions: MG-63, Osteosarcoma
U-2 OS cells = assay: Cytotoxicity CellTiter-Glo; assay type: cell-based, human
PE01 cells = assay: Cytotoxicity CellTiter-Glo; assay type: cell-based, human; conditions: read-out: IC50 (50% growth inhibition); PE01, Ovary; 72 hours
PE04 cells = assay: Cytotoxicity CellTiter-Glo; assay type: cell-based, human; conditions: read-out: IC50 (50% growth inhibition); PE04, Ovary; 72 hours
[1] = Maximum tolerated dose study: clinical chemistry evaluation (blood cell parameters, Table 6)
Protocol: The mice used in MTD were given standard chow devoid of added folic acid (low folate diet) (See, Leamon C P et al., J. Pharmacol. Exp. Ther. 327: 918-925). […] Therefore we also designed a MTD study in mice treated with low folate diet. Food consumption on the day before injection (Day −1) was recorded and then it was monitored every other day. […] Blood for clinical chemistry was collected if possible. Liver, kidney and bone marrow were collected. One side of each tissue (except bone marrow) will be fixed in 4-10% formalin for future histology analysis, and the rest of tissue will be cut into pieces, snap frozen, and stored at −80° C. until analysis. Blood samples for clinical chemistry were centrifuged at 8000 rpm for 10 min at 4° C. within 1 hour of collection. Plasma was collected into 1.5 mL eppendorf tubes and stored at −80° C. until analysis. The measured parameters were alanine transaminase (ALT), aspartate transaminase (AST), alkaline phosphatase (ALP), total bilirubin, glucose, blood urea nitrogen (BUN), creatinine, and electrolytes. All experiments were housed in a virus-free, temperature controlled facility on a 12-h light-dark cycle.

genomic DNA = assay: Platinum-DNA adducts by ICP-MS in HEK293 cells; assay type: cell-based, human
Protocol: Method to quantify platinum-DNA adducts by ICP-MS has been previously described (5,6). In brief, HEK293 cells were seeded in 6-well poly-D-lysine plate (cell density=0.5×10^6 cells/well). […] After 2 hours, the cells were washed twice with cold HBBS. The platinum content associated with genomic DNA was determined as described elsewhere. Genomic DNA was isolated from the cell pellets using Genomic DNA purification kit (Promega) and the DNA-bound platinum was determined by ICP-MS, which was normalized to total DNA content (determined by absorption spectrometry at 260 nm).

[2] = Lethality in C57BL/6 mice, i.v. once a week
Source text: The concentration versus time course of total platinum followed a two-compartment model in the mice. […] In the maximum tolerated dose studies, we observed body weight reduction in all mice due to the low folate diet (FIG. 6).

[3] = tested on: SK-N-DZ neuroblastoma xenografts; assay: SK-N-DZ neuroblastoma xenograft in nu/nu mice; assay type: in vivo, mouse; conditions: for tumor volume / tumor growth: SKNDZ neuroblastoma xenograft, 5 mg/kg i.v. once a week for 4 weeks
Protocol: The xenograft studies were performed by subcutaneous injection of SK-N-DZ (neuroblastoma, 30×10^6 cells/animal) and RMS13 (rhabdomyosarcoma, 20×10^6 cells/animal) in right flank of the male Charles River Laboratories nu/nu mice (7-8 weeks old, weight ˜20 g). Mice were treated by intravenous tail vein injection once a week for 4 weeks. The tumor sizes and body weights were monitored twice a week. Tumor volumes were calculated according to the following formula: volume=height×[…]×length×0.5236.

## [Pt(DMSO)methotrexate(Cl)] [SM-69]
SNF539 cells; read-out: IC50 (50% growth inhibition), SNF539, Brain, 72 hours
  IC50: 1.2 ± 1.1 µM
SNF539 cells; read-out: IC50 ± S.D. (50% growth inhibition), SF539, Brain - High grade, + 1 mM Folic Acid
  IC50: 13.4 ± 4.8 µM
U87MG cells; read-out: IC50 (50% growth inhibition), Brain, 72 hours
  IC50: 2.2 ± 2 µM
U87MG cells; read-out: IC50 ± S.D. (50% growth inhibition), Brain - Low grade, + 1 mM Folic Acid
  IC50: 26.2 ± 21.5 µM
U87MG cells; read-out: IC50 ± S.D. (50% growth inhibition), Brain - Low grade, two independent experiments
  IC50: 3.7 ± 4.5 µM
U251 cells; read-out: IC50 (50% growth inhibition), U251, Brain, 72 hours
  IC50: 4 ± 4.5 µM
U251 cells; read-out: IC50 ± S.D. (50% growth inhibition), U251, Brain - High grade, + 1 mM Folic Acid
  IC50: 6.1 ± 0.29 µM
U251 cells; read-out: IC50 ± S.D. (50% growth inhibition), U251, Brain - High grade, two independent experiments
  IC50: 0.25 ± 0.02 µM
MG-63 cells
  GI50: 2.4 ± 1.4 µM
MG-63 cells; read-out: IC50 (50% growth inhibition), 72 hours
  IC50: 2.4 ± 1.4 µM
U-2 OS cells; Osteosarcoma
  GI50: 18 ± 15 µM
U-2 OS cells; read-out: IC50 (50% growth inhibition), Osteosarcoma, 72 hours
  IC50: 18 ± 15 µM
PE01 cells
  IC50: 0.6 ± 0.4 µM
PE04 cells
  IC50: 4.9 ± 2 µM
[1]; 2.5 mpk i.v. once a week
  RDWa: 30.35
  granulocytes (GRAN %): 31.88%
  granulocytes (GRAN): 3.55
  hematocrit (HCT): 46.20
  hemoglobin (HGB): 16.20
  lymphocytes (LYM %): 60.70%
  lymphocytes (LYM): 6.65
  mean corpuscular hemoglobin (MCH): 15.65
  mean corpuscular hemoglobin concentration (MCHC): 35.08
  mean corpuscular volume (MCV): 44.68
  mean platelet volume (MPV): 6.68
  monocytes (MONO %): 7.43%
  monocytes (MONO): 0.83
  platelet count (PLT): 193.00
  red blood cell count (RBC): 10.34
  red cell distribution width (RDW %): 21.53%
  white blood cell count (WBC): 11.03
[1]; 5 mpk i.v. once a week
  RDWa: 30.10
  granulocytes (GRAN %): 33.28%
  granulocytes (GRAN): 3.55
  hematocrit (HCT): 47.65
  hemoglobin (HGB): 17.08
  lymphocytes (LYM %): 58.70%
  lymphocytes (LYM): 6.38
  mean corpuscular hemoglobin (MCH): 15.73
  mean corpuscular hemoglobin concentration (MCHC): 35.83
  mean corpuscular volume (MCV): 43.95
  mean platelet volume (MPV): 6.83
  monocytes (MONO %): 8.03%
  monocytes (MONO): 0.88
  platelet count (PLT): 182.25
  red blood cell count (RBC): 10.86
  red cell distribution width (RDW %): 21.93%
  white blood cell count (WBC): 10.80
[1]; 7.5 mpk i.v. once a week
  RDWa: 29.67
  granulocytes (GRAN %): 36.03%
  granulocytes (GRAN): 4.40
  hematocrit (HCT): 45.47
  hemoglobin (HGB): 16.23
  lymphocytes (LYM %): 56.53%
  lymphocytes (LYM): 7.07
  mean corpuscular hemoglobin (MCH): 15.63
  mean corpuscular hemoglobin concentration (MCHC): 35.73
  mean corpuscular volume (MCV): 43.80
  mean platelet volume (MPV): 6.40
  monocytes (MONO %): 7.43%
  monocytes (MONO): 0.93
  platelet count (PLT): 171.33
  red blood cell count (RBC): 10.38
  red cell distribution width (RDW %): 21.87%
  white blood cell count (WBC): 12.40
Genomic DNA
  platinum content associated with genomic DNA, dose dependence: higher with higher doses
Genomic DNA; 10 μM, 2 hours
  platinum content associated with genomic DNA (platinum-DNA adducts): form platinum-DNA adducts similarly to cisplatin
[2]; 5 mg/kg i.v. once a week
  lethality: not
[2]; 10 mg/kg i.v. once a week
  lethality: lethal
[3]; 5 mg/kg
  tumor volume / tumor growth: significantly different compared with other groups; also recorded: significantly lower compared with SM-70
[3]; listed as AT-69, 5 mg/kg
  tumor volume / tumor growth: significantly reduces NB tumor growth; also recorded: inhibited tumor growth; also recorded: more potent than cisplatin
[3]; SKNDZ xenograft model, 5 mpk, listed as AT-69, 5 mg/kg
  survival: significant increase; also recorded: significantly increase survival; also recorded: significant difference in survival; also recorded: increase survival rate
